The structures appear in SMILES notation. Values after ≈ are worked out from the molar mass of the structure shown. Read-outs that look alike come from different tables or passages of the source.

Series [1] is classed as physicochemical. As for the experimental part:
(§1) The SSF was prepared following the instructions included in the article published by Minekus et al. in 2014 in the journal Food & Function (Minekus M, Alminger M, Alvito P, et al. A standardized static in vitro digestion method suitable for food - an international consensus. Food & Funct. 2014. 5:1113-1124). In detail, the SSF was prepared by mixing the following saline solutions: • KCI at the concentration of 15.1 mmol/l, • KH2PO4 at the concentration of 3.7 mmol/l, • NaHCO3 at the concentration of 13.6 mmol/l, • MgCl2(H2O)6 at the concentration of 0.15 mmol/l, and • (NH4)2CO3 at the concentration of 0.06 mmol/l. […]
(§2) Each sample as illustrated below was analysed in triplicate and the concentration of curcumin and resveratrol was calculated on the basis of two calibration curves previously constructed using the curcumin and resveratrol supplied as reference substance and dissolved in 96% ethanol. For processing the calibration curves, the curcumin and resveratrol solutions (prepared by dissolving an exactly weighed quantity of substance in 96% ethanol) were prepared and subjected to analysis in a concentration range, from 0.5 to 200 µg/ml . […]

The nature of series [2]: physchem. It is filed as physicochemical. Particulars: maltitol 1.35 g, curcumin 50 mg, resveratrol 50 mg, extraction with 6 ml SSF at room temperature. The procedure:
as §1, §2

Series [3] can be described thus: physchem. It is filed as physicochemical. The conditions noted are these: dmem medium, mean of technical triplicates, read-out: Concentration in DMEM medium. The procedure:
(§3) The chromatography analyses were performed using a HPLC-DAD Agilent 1100 system (Agilent, Waldbronn, Germany), comprising a quaternary pump, self-sampler with thermostat equipped with a 100 µl injection loop, column thermostat, DAD Agilent 1100 detector (Agilent, Waldbronn, Germany). For the system control and data analysis the Chemstation software was used. The separation of the compounds was obtained with a Gemini C18 110A analytical column (150 mm × 2 mm; particle diameter 5 µm), connected to a suitable pre-column, both purchased from Phenomenex, Torrance, CA, USA. […]
as §2
Subsequently, the cell pellet was re-suspended in 24 ml of DMEM medium and the sample was centrifuged at 6000 rpm for 10 minutes to remove the insoluble part. […] The quantities of the compounds added to the medium and were selected on the basis of the first experimental phase. […]

The next series deals with HaCat cells. It is filed as in vitro ADME, Human. The conditions noted are these: HaCat cells incubated 120 minutes at 37°C, mean of technical triplicates. The procedure: as §3, §2
The cells were detached mechanically using a scraper in 2 ml of PBS and transferred into a 15 ml Falcon test tube for being centrifuged at 1500 rpm for 5 minutes. […] The results obtained, reported in Table 4, were expressed as a mean of the technical triplicates. […]

Take `COc1cc(/C=C/C(=O)CC(=O)/C=C/c2ccc(O)c(OC)c2)ccc1O` [Curcumin]: the “solubility in SSF” value in series [1] is listed as “substantial insolubility”.

`Oc1ccc(/C=C/c2cc(O)cc(O)c2)cc1` [Resveratrol, 3,5,4'-trihydroxy-trans-stilbene] gave a Concentration in the series “physchem [2]” (SAMPLE 2: 2.8528 g dark chocolate, ethanol 99.9 µL) of 82470 ng/mL. The solubility in “physchem [2]” (simulated salivary fluid, SAMPLE 1: 2.8528 g dark chocolate, ethanol 199.8 µL, read-out: Concentration) is 156 µg/mL (≈ 683 µM); in the series “physchem [3]” (no matrix, 167 mg curcumin and 167 mg resveratrol in 20 ml DMEM, filtered), 31.8 µg/mL (≈ 139 µM); in “physchem [3]” (with chocolate matrix: 200 mg curcumin, 200 mg resveratrol, 5.4 g maltitol, 12 g dark chocolate, 799.2 µl ethanol, hexane-defatted, re-suspended in 24 ml DMEM) it was 125 µg/mL (≈ 547 µM). The “Concentration in cell pellet (absorption by the cells)” value amounted to 0 ng/mL with HaCat cells (no matrix, pellet re-suspended in 500 µl 96° ethanol); 3660 ng/mL in the series on HaCat cells (with chocolate matrix, maltitol and ethanol).

The values are drawn from EP3866610B1, “CHOCOLATE MATRIX COMPRISING CURCUMIN AND RESVERATROL” (priority 2018, dated 2020).
